# pIC50: −log10 of the molar value. Where a name gives a salt, the structure may show the parent alone.
# Biological target: T1, dopaminergic (D2) receptors (Rattus norvegicus, UniProt P61169)
# T1 construct: Homogenates (Brinkmann Polytron) of the corpus striatum in cold HEPES.KOH buffer; from tissue; host or cells: rat corpus striatum (washed membrane homogenate; rats from Charles River)
# Assay: 3H-Spiperone Displacement (striatal rat brain homogenates)
# Type: binding
# Settings: rat striatal homogenate, approx. 100 pM 3H-spiperone, 37° C., 15 min
# Experimental: (A) ^3 H-Spiperone Displacement
# Rats (150±10 g; Charles River) were decapitated, the corpus striatum dissected out and frozen on dry ice. The tissues were pooled and stored at -80° C. until used. Homogenates (Brinkmann Polytron) of the corpus striatum in cold HEPES.KOH buffer (final pH=7.4) were centrifuged at 39,000× G. The supernatant was discarded and the pellets were re-suspended in HEPES.KOH buffer and re-centrifuged as above.
# Tests to determine the Inhibitory Concentration50 (IC50) of the compounds of Formula I and reference compounds versus ^3 H-spiperone were conducted as follows. Tubes containing either 100 μL of buffer mixture (for total binding), 100 μL of buffer mixture plus 100 μL of 10^-4 M D(+)-butaclamol (for blanks, i.e. non-specific binding), or 100 μL of buffer mixture containing 10^-7, 10^-6 or 10^-5 M test compound were prepared. To each were added 100 μL of a solution of ^3 H-spiperone (New England Nuclear) in buffer mixture (2000 c.p.m. in the incubation mixture) and 800 μL of the striatal tissue suspension. The tubes were then diluted to 1 mL with buffer mixture, giving a final concentration of 10^-8, 10^-7 or 10^-6 M test compound and approximately 100 pM ^3 H-spiperone. The samples were incubated at 37° C. for 15 minutes, filtered in vacuo on glass fiber filters and counted by liquid scintillation spectrometry. […] All samples were run in duplicate.
# T1 sequence (P61169 whole entry): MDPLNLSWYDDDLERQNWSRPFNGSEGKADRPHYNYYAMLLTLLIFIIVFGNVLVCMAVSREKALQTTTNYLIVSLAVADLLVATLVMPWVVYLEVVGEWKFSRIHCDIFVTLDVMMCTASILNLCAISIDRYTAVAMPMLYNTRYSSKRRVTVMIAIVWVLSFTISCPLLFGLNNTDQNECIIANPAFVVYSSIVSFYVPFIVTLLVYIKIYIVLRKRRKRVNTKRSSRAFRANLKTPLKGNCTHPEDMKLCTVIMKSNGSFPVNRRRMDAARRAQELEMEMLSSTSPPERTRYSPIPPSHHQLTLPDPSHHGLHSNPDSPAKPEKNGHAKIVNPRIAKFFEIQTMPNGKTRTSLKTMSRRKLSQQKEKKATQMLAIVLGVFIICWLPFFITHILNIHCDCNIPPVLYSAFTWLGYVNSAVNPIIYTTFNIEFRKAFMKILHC
row,pIC50,Compound
1,< 6.00,"CCN(CC)CCNC(=O)c1cc(Cl)c(N)cc1OCCOC [Example 1, 4-Amino-5-chloro-N-[2-(diethylamino)ethyl]-2-(2-methoxyethoxy)-benzamide]"
2,< 6.00,"CCN(CC)CCNC(=O)c1cc(Cl)c(N)cc1OCCO [Example 2, 4-Amino-5-chloro-N-[2-(diethylamino)ethyl]-2-(2-hydroxyethoxy)benzamide]"
3,< 6.00,CCN(CC)CCNC(=O)c1cc(Cl)c(N)cc1OCOCCOC [Example 4]
4,< 6.00,"CCN(CC)CCNC(=O)c1cc(Cl)c(N)cc1OCC(C)=O [Example 5, 4-Amino-5-chloro-N-[2-(diethylamino)ethyl]-2-(2-propanon-1-yl)-oxybenzamide]"
5,< 6.00,"CCN(CC)CCNC(=O)c1cc(Cl)c(N)cc1OCC(C)=NO [Example 10, 4-Amino-5-chloro-N-[2-(diethylamino)ethyl]-2-[(2-hydroxyimino)propan-1-yl]oxybenzamide]"
6,< 6.00,"CCN(CC)CCNC(=O)c1cc(Cl)c(N)cc1OCC(C)O (stereo not drawn) [Example 12, 4-Amino-5-chloro-N-[2-(diethylamino)ethyl]-2-(2-hydroxypropan-1-yl)oxybenzamide]"
7,< 6.00,"CCN(CC)CCNC(=O)c1cc(Cl)c(N)cc1OCC(=O)OC [Example 15, 4-Amino-5-chloro-N-[2-(diethylamino)ethyl]-2-(2-methoxy-2-oxoethoxy)benzamide]"
8,< 6.00,"CCC(=O)COc1cc(N)c(Cl)cc1C(=O)NCCN(CC)CC [Example 26, 4-Amino-2-(2-butanon-1-yl)oxy-5-chloro-N-[2-(diethylamino)-ethyl]benzamide]"
9,< 6.00,"CCCC(=O)COc1cc(N)c(Cl)cc1C(=O)NCCN(CC)CC [Example 27, 4-Amino-5-chloro-N-[2-(diethylamino)ethyl]-2-(pentan-2-on-1-yl)oxybenzamide]"
10,< 6.00,CCN(CC)CCNC(=O)c1cc(Cl)c(N)cc1OCC(=O)C(C)C [Example 29]

# The remaining lines, values behind:
row,Compound,pIC50
1,"CCN(CC)CCNC(=O)c1cc(Cl)c(N)cc1OC(C)C(C)O (mixture of isomers) [Example 41, 4-Amino-5-chloro-N-2-(diethylamino)ethyl]-2-[(2-hydroxy)but-3-yl]oxybenzamide (mixture of threo and erythro isomers)]",< 6.00
2,CCN(CC)CCNC(=O)c1cc(Cl)c(N)cc1OCC(OC)OC [Example 3],< 6.00
3,"CCN(CC)CCNC(=O)c1cc(Cl)c(N)cc1OCC(=O)c1ccccc1 [Example 6, 4-Amino-2-(2-phenyl-2-oxoethoxy)-5-chloro-N-[2-(diethylamino)ethyl]benzamid]",< 6.00
4,"CCN(CC)CCNC(=O)c1cc(Cl)c(N)cc1OC(C)C(C)=O (stereo not drawn) [Example 7, 4-Amino-2-(butan-2-on-3-yl)oxy-5-chloro-N-[2-(diethylamino)-ethyl]benzamide]",< 6.00
5,"CCN(CC)CCNC(=O)c1cc(Cl)c(N)cc1OC1CCCCC1=O (stereo not drawn) [Example 9, 4-Amino-5-chloro-2-(cyclohexanon-2-yl)oxy-N-[2-(diethylamino)ethyl]benzamide]",< 6.00
6,"CCN(CC)CCNC(=O)c1cc(Cl)c(N)cc1OCC#N [Example 13, 4-Amino-5-chloro-2-cyanomethoxy-N-[2-(diethylamino)ethyl]benzamide]",< 6.00
7,CCN(CC)CCNC(=O)c1cc(Cl)c(N)cc1OC(C)C#N (stereo not drawn) [Example 14],< 6.00
8,"CCN(CC)CCNC(=O)c1cc(Cl)c(N)cc1OCC1COC(C)(C)O1 (stereo not drawn) [Example 18, 4-Amino-5-chloro-N-[2-(diethylamino)ethyl]-2-(2,2-dimethyl-1,3-dioxalan-4-yl)methoxybenzamide]",< 6.00
9,"CCN(CC)CCNC(=O)c1cc(Cl)c(N)cc1OCc1cc(C)no1 [Example 19, 4-Amino-5-chloro-N-[2-(diethylamino)ethyl]-2-(3-methylisoxazol-5-yl)methoxybenzamide]",< 6.00
10,"C=CCC(Oc1cc(N)c(Cl)cc1C(=O)NCCN(CC)CC)C(C)=O (stereo not drawn) [Example 24, 4-Amino-5-chloro-N-[2-(diethylamino)ethyl]-2-(5-hexen-2-on-3-yl)-oxybenzamide hydrochloride]",< 6.00
11,"CCC(Oc1cc(N)c(Cl)cc1C(=O)NCCN(CC)CC)C(C)=O (stereo not drawn) [Example 25, 4-Amino-5-chloro-N-[2-(diethylamino)ethyl]-2-(pentan-2-on-3-yl)-oxybenzamide]",< 6.00
12,"CCC(=O)C(C)Oc1cc(N)c(Cl)cc1C(=O)NCCN(CC)CC (stereo not drawn) [Example 28, 4-Amino-5-chloro-2-(pentan-3-on-2-yl)oxy-N-(2-diethylaminoethyl)benzamide hydrochloride]",< 6.00
13,CCN(CC)CCNC(=O)c1cc(Cl)c(N)cc1OCC(=O)Cc1ccccc1 [Example 30],< 6.00
14,"CCN(CC)CCNC(=O)c1cc(Cl)c(N)cc1OC(C)(C)C(C)=O [Example 31, 4-Amino-5-chloro-N-2-(diethylamino)ethyl]-2-[(3-methyl)butan-2-on-3-yl]oxybenzamide monohydrate]",< 6.00
15,"CCN(CC)CCNC(=O)c1cc(Cl)c(N)cc1OCC(O)Cc1ccccc1 (stereo not drawn) [Example 33, 4-Amino-5-chloro-N-[2-(diethylamino)ethyl]-2-[2-(2-hydroxy-3-phenylpropyl)]oxybenzamide]",< 6.00
16,CCN(CC)CCNC(=O)c1cc(Cl)c(N)cc1OCC1OCCO1 [Example 43],< 6.00
17,"CCN(CC)CCNC(=O)c1cc(Cl)c(N)cc1OCc1ccccn1 [Example 45, 4-Amino-5-chloro-N-[2-(diethylamino)ethyl]-2-(2-pyridinomethyl)-oxybenzamide]",< 6.00
18,"CCN(CC)CCNC(=O)c1cc(Cl)c(N)cc1OCCOCCOC [Example 46, 4-Amino-5-chloro-N-[2-(diethylamino)ethyl]-2-(2-methoxyethoxyethyl)oxybenzamide]",< 6.00
19,"CCN(CC)CCNC(=O)c1cc(Cl)c(N)cc1OCC1=NCCN1 [Example 51, 4-Amino-5-chloro-N-[2-(diethylamino)ethyl]-2-(1H-4,5-dihydroimidazol-2-yl)methoxybenzamide]",< 6.00
20,CCN(CC)CCNC(=O)c1cc(Cl)c(N)cc1OCCC1(C)OCCO1 [Example 54],< 6.00
